PMC10269622, “Blapstin, a Diapause-Specific Peptide-Like Peptide from the Chinese Medicinal Beetle Blaps rhynchopetera, Has Antifungal Function” (Microbiology Spectrum, 2023)
In brackets after ≈: the same amount, converted by molar mass.

How the values were obtained:
Experiment in all cases: MIC, broth double dilution
C. albicans 0065 = format: cell-based, Candida albicans; conditions: 37°C, 16 h, absorbance at 600 nm, mean of three independent experiments
Experimental: (§1) The standard strain of C. albicans (ATCC 10231), three clinically isolated antibiotic-resistant strains (C. albicans 0065, C. albicans 0063, and C. albicans 6), E. coli (ATCC 8739), and S. aureus (ATCC 6538) were obtained from Kunming Medical University. T. rubrum was purchased from BeNa Culture Collection (BNCC, CAS no. 340195). Different strains of C. albicans, E. coli, and S. aureus were cultured with shaking at 37°C in YM medium and Luria-Bertani (LB) medium. T. rubrum was cultured at 28°C in potato dextrose agar (PDA) medium according to the manufacturer’s instructions.
(§2) According to CLSI protocols, the MIC is determined as a point where there is “zero detectable growth,” The MIC of blapstin against different fungal strains was determined by use of the double dilution method, namely, broth dilution determination. In brief, the different strains were grown in their corresponding media at 28°C or 37°C until they reached the exponential growth phase. Colistin E and fluconazole were used as positive controls. Blapstin was diluted to various concentrations in sterile saline: 100 μL of sterile saline was added to the second well of a sterile 96-well plate, and then 100 μL of blapstin was added to the first and second wells. The solution from the second well was double-diluted with sterile saline until the 11th well, from which 100 μL was removed. In the 12th well, no blapstin was added, and sterile saline was used as a negative control. Afterward, 100 μL of the diluted microbial solution was added to each well, followed by incubation at 37°C for 16 h. To assess the antifungal activity of blapstin against the T. rubrum strain, the spore germination rates were first determined microscopically with a hemocytometer. T. rubrum was diluted with normal saline to 1 × 10^5 CFU/mL and then incubated with various concentrations of blapstin at 28°C for 16 h. The absorbance at 600 nm was measured by a microplate reader (Epoch Etock; Biotek, USA) to estimate the inhibition of bacteria and fungi by blapstin.

C. albicans 0063 = format: cell-based, Candida albicans; conditions: 37°C, 16 h, absorbance at 600 nm, mean of three independent experiments
Experimental: as §1, §2

C. albicans 6 = format: cell-based, Candida albicans; conditions: 37°C, 16 h, absorbance at 600 nm, mean of three independent experiments
Experimental: as §1, §2

[1] = system: Candida albicans ATCC 10231; format: cell-based; conditions: 96-well plate, 37°C, 16 h, absorbance at 600 nm, mean of three independent experiments
Experimental: as §1, §2

Trichophyton rubrum = format: cell-based; conditions: 1 × 10^5 CFU/mL, 28°C, 16 h, absorbance at 600 nm, mean of three independent experiments, ND = no bacteriostatic activity
Experimental: as §1, §2

[2] = system: Escherichia coli ATCC 8739; format: cell-based; conditions: 96-well plate, 37°C, 16 h, absorbance at 600 nm, mean of three independent experiments, ND = no bacteriostatic activity
Experimental: as §1, §2

[3] = system: Staphylococcus aureus ATCC 6538; format: cell-based; conditions: 96-well plate, 37°C, 16 h, absorbance at 600 nm, mean of three independent experiments, ND = no bacteriostatic activity
Experimental: as §1, §2

[4] = clinically isolated antibiotic-resistant strain

Row | Molecule | MIC (C. albicans 0065; Candida albicans, 0065, clinically isolated antibiotic-resistant strain) | MIC (C. albicans 0063; Candida albicans, 0063, clinically isolated antibiotic-resistant strain) | MIC (C. albicans 6; Candida albicans, 6, clinically isolated antibiotic-resistant strain) | MIC ([1]; Candida albicans, ATCC10231, standard strain) | MIC (Trichophyton rubrum) | MIC (C. albicans 0065; [4]) | MIC (C. albicans 0063; [4]) | MIC (C. albicans 6; [4]) | MIC [2] | MIC [3] | MIC ([1]; standard strain)
1 | OC(Cn1cncn1)(Cn1cncn1)c1ccc(F)cc1F [Fluconazole] | 70 µM (≈ 21.4 µg/mL) | 61 µM (≈ 18.7 µg/mL) | 61 µM (≈ 18.7 µg/mL) | 15 µM (≈ 4.59 µg/mL) | 12.2 µM (≈ 3.74 µg/mL) | – | – | – | – | – | –
2 | Colistin E | – | – | – | – | – | 5.4 µM | 5.4 µM | 1.1 µM | 3 µM | 81.1 µM | 22 µM
